In US20100240641A1, “Aldosterone Synthase and/or 11B-hydroxylase Inhibitors” (priority 2006, published 2010):

Legend:
aldosterone synthase = target: T1, aldosterone synthase (Homo sapiens, UniProt P19099); test: In vitro aldosterone synthase inhibition: aldosterone production in Ang II-stimulated NCI-H295R cells; assay type: cell-based; conditions: read-out: AS IC50
T1 construct: host or cells: NCI-H295R
T1 sequence (P19099 25-503): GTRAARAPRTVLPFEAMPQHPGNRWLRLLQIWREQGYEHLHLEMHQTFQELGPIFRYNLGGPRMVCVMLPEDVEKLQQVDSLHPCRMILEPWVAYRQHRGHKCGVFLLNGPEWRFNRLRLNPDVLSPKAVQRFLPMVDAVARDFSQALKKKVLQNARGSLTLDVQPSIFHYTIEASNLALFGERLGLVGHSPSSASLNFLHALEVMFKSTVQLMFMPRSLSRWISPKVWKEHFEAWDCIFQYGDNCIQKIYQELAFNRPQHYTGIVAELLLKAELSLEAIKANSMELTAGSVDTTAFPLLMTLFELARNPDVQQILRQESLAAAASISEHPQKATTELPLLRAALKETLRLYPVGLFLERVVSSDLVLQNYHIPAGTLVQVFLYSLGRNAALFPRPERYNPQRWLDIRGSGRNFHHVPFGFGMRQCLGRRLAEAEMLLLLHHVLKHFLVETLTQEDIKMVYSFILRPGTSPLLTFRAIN
Source text: In particular, the aldosterone synthase inhibitory activities in vitro can be determined by the following assay.
Human adrenocortical carcinoma NCI-H295R cell line is obtained from American Type Culture Collection (Manassas, Va.). Insulin/transferrin/selenium (ITS)-A supplement (100×), DMEM/F-12, antibiotic/antimycotic (100×), and fetal calf serum (FCS) are purchased from Gibco (Grand Island, N.Y.). Anti-mouse PVT scintillation proximity assay (SPA) beads and NBS 96-well plates are obtained from Amersham (Piscataway, N.J.) and Corning (Acton, Mass.), respectively. Solid black 96-well flat bottom plates were purchased from Costar (Corning; NY). Aldosterone and angiotensin (Ang II) are purchased from Sigma (St. Louis, Mo.). D[1,2,6,7-^3H(N)]aldosterone was acquired from PerkinElmer (Boston, Mass.). Nu-serum was a product of BD Biosciences (Franklin Lakes, N.J.). The NADPH regenerating system, dibenzylfluorescein (DBF), and human aromatase Supersomes® are obtained from Gentest (Woburn, Mass.). […]
Measurement of aldosterone activity can also be performed using a 96-well plate format. […] The amount of aldosterone in each sample is calculated by comparing with a standard curve generated using known quantities of the hormone.

CYP11B1 = target: T2, CYP11B1 (Homo sapiens, UniProt P15538); test: In vitro CYP11B1 inhibition: steroid release from NCI-H295R cells; assay type: cell-based; conditions: 10 nM compound, read-out: 11B1 % Inhibition @ 10 nM
T2 construct: Thus, the NCl-H295R cells have Cyp11 B1 (steroid 11 p-hydroxylase); host or cells: NCI-H295R
T2 sequence (P15538 25-503): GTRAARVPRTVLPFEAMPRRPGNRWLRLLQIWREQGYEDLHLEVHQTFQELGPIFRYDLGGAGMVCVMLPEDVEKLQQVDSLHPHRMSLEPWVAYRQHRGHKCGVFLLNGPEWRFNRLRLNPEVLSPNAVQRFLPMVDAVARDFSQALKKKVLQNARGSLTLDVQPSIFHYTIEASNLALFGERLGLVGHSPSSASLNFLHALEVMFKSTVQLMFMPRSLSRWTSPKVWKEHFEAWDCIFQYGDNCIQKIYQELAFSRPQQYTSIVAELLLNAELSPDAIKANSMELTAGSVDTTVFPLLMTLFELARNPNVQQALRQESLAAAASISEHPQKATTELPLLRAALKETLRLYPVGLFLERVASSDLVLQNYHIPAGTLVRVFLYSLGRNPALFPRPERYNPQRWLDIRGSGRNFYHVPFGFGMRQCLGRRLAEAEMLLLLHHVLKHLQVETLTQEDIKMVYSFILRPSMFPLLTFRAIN
Source text: The in vitro inhibitory activities for CYP11B1 can be determined by the following assay.
The cell line NCI-H295R was originally isolated from an adrenocortical carcinoma and has been characterized in the literature through the stimulable secretion of steroid hormones and the presence of the enymes essential for steroidogenesis. Thus, the NCl-H295R cells have Cyp11 B1 (steroid 11 p-hydroxylase). The cells show the physiological property of zonally undifferentiated human foetal adrenocortical cells which, however, have the capacity to produce the steroid hormones which are formed in the three, phenotypically distinguishable zones in the adult adrenal cortex. […]
The excretion of aldosterone, cortisol, corticosterone and estradiol/estrone into the culture medium can be detected and quantified by commercially available, specific monoclonal antibodies in radioimmunoassays in accordance with the manufacturer's instructions.
Inhibition of the release of certain steroids can be used as a measure of the respective enzyme inhibition by the added test compounds. The dose-dependent inhibition of enzymic activity by a compound is calculated by means of an inhibition plot which is characterized by an IC50. […]

Compound	IC50 (aldosterone synthase) [nM]	inhibition at 0.01 µM (CYP11B1) [%]
CCC1(c2ccc(C#N)cc2OC)C(=O)N(Cc2ccc(Cl)cc2)Cc2cncn21 (stereo not drawn) [Compound 1, 4-[7-(4-Chloro-benzyl)-5-ethyl-6-oxo-5,6,7,8-tetrahydro-imidazo[1,5-a]pyrazin-5-yl]-3-methoxy-benzonitrile]	12	
CCC1(c2ccc(C#N)cc2F)C(=O)N(Cc2ccc(F)cc2)Cc2cncn21 (stereo not drawn) [Compound 7, 4-[5-Ethyl-7-(4-fluoro-benzyl)-6-oxo-5,6,7,8-tetrahydro-imidazo[1,5-a]pyrazin-5-yl]-3-fluoro-benzonitrile]		100
CCC1(c2ccc(C)cc2OC)C(=O)N(Cc2ccc(F)cc2)Cc2cncn21 (stereo not drawn) [Compound 8, 5-(2-Methoxy-4-methyl-phenyl)-5-ethyl-7-(4-fluoro-benzyl)-7,8-dihydro-imidazo[1,5-a]pyrazin-6-one]		98
